Reference: patent publication US10851088B2, “Polymorphs and solid forms of a pyrimidinylamino-pyrazole compound, and methods of production” (Denali Therapeutics Inc., priority 2017, dated 2020)
Converted amounts (≈) assume the structure as drawn. Read-outs that look alike come from different tables or passages of the source.

Assays:
Assay type in all cases: physicochemical
[1] = 24 hrs solubility in H2O at RT (HPLC of supernatant, XRPD of residual solids)
Description: The solubility at 24 hrs of Forms A, C, and D was measured in water at RT. Form A, Form C, and Form D samples were suspended into H2O with dose concentration of 10 mg/mL. After slurrying the suspensions at RT for 24 hrs (1000 rpm), the supernatants were separated for HPLC solubility measurement and the residual solids were characterized by XRPD.

[2] = Dynamic vapor sorption (DVS) hygroscopicity test; settings: for water uptake: at 80% RH at 25° C., DVS
Description: To investigate the solid form stability as a function of humidity, Dynamic Vapor Sorption (DVS) isotherm plots of Form A, Form C, and Form D were collected at 25° C. between 0 and 95% relative humidity (RH) by the procedures of Example 8. […] DVS was measured via a SMS (Surface Measurement Systems) DVS Intrinsic. The relative humidity at 25° C. were calibrated against deliquescence points of LiCl, Mg(NO3)2 and KCl. [table]

[3] = Slurry competition experiments (thermodynamic stability of anhydrate forms); settings: for thermodynamic stability, Form C versus Form D: slurry competition
Description: Slurry competition experiments were performed to investigate the inter-conversion relationship between three anhydrates (Form A, C, and D). […] Slurry competition was first performed between Form A and C at RT and 50° C. Form C was obtained after slurrying for 40 hrs at RT or 2 hrs at 50° C. […] Therefore, slurry competition was further performed between Form C and D in various solvent systems. The solvent effect of H2O was discovered to be associated with the inter-conversion relationship between Form C and D, with form D forming under anhydrous conditions.
To understand the thermodynamic stability relationship between Form A and Form C, slurry competition experiments were performed at RT and 50° C. in different solvent systems, including acetone/n-heptane, methyl tert-butylether (MTBE)/heptane, and water. Form A was used to saturate the corresponding solvent before filtered to obtain a near-saturated solution. Equal amount of Form A and C samples were weighed and then mixed with the prepared near-saturated solution to form a new suspension, which was stirred magnetically (˜1000 rpm) at RT and 50° C. The XRPD patterns of remaining solids after slurry were measured. […] Form D was obtained via slurrying Form A in MTBE/n-heptane (1:4, v/v) at RT for 1 day, with the addition of Form D sample as seeds.
To further understand the thermodynamic stability relationship between Form C and Form D, slurry competition experiments were performed at RT and 70° C. in various solvent systems, including methyl tert-butylether/heptane, water, cyclohexane, and ethanol/isooctane. Equal amount of Form C and D samples were weighed and then mixed with the near-saturated solution of Form A in corresponding solvent to form a suspension, which was stirred magnetically (˜1000 rpm) at different temperatures. The XRPD patterns of remaining solids after slurry were measured. […] Water content in process solvents were monitored and controlled during the manufacturing of Form C or D samples. […] Water activity (or relative humidity) was monitored and controlled during the manufacture and storage of Form C or D samples.

[4] = Approximate solubility in solvents, used to choose slurry solvent systems
[5] = 24 hrs slurry at 10 mg/mL dose concentration, HPLC

SMILES	form change after 24 hrs solubility evaluation (XRPD of residual solids) [1]	solubility at 24 h ([1]; water, thermodynamic from solid, 24 hrs slurry at 10 mg/mL dose concentration, HPLC) [µg/mL]	water uptake [2] [%]	24 Hrs Solubility in H2O at RT [1, 5] [µg/mL]	Hygroscopicity ([2]; DVS at 25° C., 0 to 95% RH)	thermodynamic stability, Form A versus Form C ([3]; slurry competition of equal amounts of Form A and C, RT and 50° C., various solvents)	thermodynamic stability, Form C versus Form D ([3]; water activity aw≥0.5 at RT)	thermodynamic stability, Form C versus Form D ([3]; water activity aw≤0.2 at RT)	solubility ([4]; H2O and non-polar solvents (e.g., n-heptane, cyclohexane), water, read-out: solubility in H2O and non-polar solvents) [µg/mL]	solubility ([4]; organic solvent or mixture, solvents other than H2O and non-polar solvents, read-out: solubility in other solvents) [µg/mL]
CNc1nc(Nc2cn(C(C)(C)C#N)nc2C)ncc1C(F)(F)F [Form A, 2-methyl-2-(3-methyl-4-(4-(methylamino)-5-(trifluoromethyl)pyrimidin-2-ylamino)-1H-pyrazol-1-yl)propanenitrile]	No form change	180 (≈ 530 µM)	0.04							
CNc1nc(Nc2cn(C(C)(C)C#N)nc2C)ncc1C(F)(F)F [Form C, 2-methyl-2-(3-methyl-4-(4-(methylamino)-5-(trifluoromethyl)pyrimidin-2-ylamino)-1H-pyrazol-1-yl)propanenitrile]	No form change		0.6	140	slightly hygroscopic	thermodynamically more stable than Form A	more stable			
CNc1nc(Nc2cn(C(C)(C)C#N)nc2C)ncc1C(F)(F)F [Form D, 2-methyl-2-(3-methyl-4-(4-(methylamino)-5-(trifluoromethyl)pyrimidin-2-ylamino)-1H-pyrazol-1-yl)propanenitrile]	No form change		0.05	110				thermodynamically more stable		
CNc1nc(Nc2cn(C(C)(C)C#N)nc2C)ncc1C(F)(F)F [Formula I compound, 2-methyl-2-(3-methyl-4-(4-(methylamino)-5-(trifluoromethyl)pyrimidin-2-ylamino)-1H-pyrazol-1-yl)propanenitrile]									< 2000	> 40000
